# Test results published in US20150011588A1, “Novel formulation, omeprazole antacid complex-immediate release for rapid and sustained suppression of gastric acid” (priority 2003, published 2015).
# Columns and labels:
# clinical = conditions: human, plasma, oral, 40 mg
# Source text: Pharmacokinetic parameters disclosed herein include: (1) parameters obtained directly from the data without interpolation, including plasma omeprazole concentration, peak omeprazole plasma concentration (Cmax), and time to peak omeprazole plasma concentration (Tmax); (2) terminal elimination rate constant (kel) determined from a log-linear regression analysis of the terminal plasma omeprazole concentrations; (3) terminal elimination half-life (t1/2) calculated as 0.693/kel; (4) area under the omeprazole plasma concentration-time curve from time zero to time “t” (AUCo-t), calculated using the trapezodial rule with the plasma concentration at time “t” being the last measurable concentration; (5) area under the omeprazole plasma concentration-time curve from time zero to time infinity (AUC0-inf), calculated as AUC0-t+Ct/kel, where Ct is the last measurable plasma concentration and kel is the terminal elimination rate constant defined above.
# Blood samples (10 mL) were taken within 30 minutes predose and up to 12 hours postdose; eg, postdose at 5, 10, 15, 30, 45, 60, 90, 120, 180, 240, 300, 360 minutes, and up to 12 hours in some studies.
# (§1) This trial protocol is designed as a single-dose crossover trial. […] Each dose was followed by a 7-14 day washout. The same treatment was administered to all subjects in each trial period:
# For the periods including omeprazole powder plus tablet administration, the subject received omeprazole powder administered directly onto the dorsal mid-tongue Immediately thereafter, subjects were given one chewable antacid tablet, which they began chewing. The subject continued to chew the tablet while mixing it with omeprazole powder, and carefully avoided swallowing the powder immediately. One minute after initiating chewing (and after completely swallowing trial medications), each subject drank 120 mL of water, swishing the oral contents before swallowing.
# Pharmacokinetic evaluations include plasma omeprazole and esomeprazole concentration over time; and plasma omeprazole and esomeprazole C., Tmax, kel, T1/2, AUC(0-t), and AUC(0-inf).
# gastric acidity = assay: SAN-15-CO1C trial: gastric pH monitoring, omeprazole powder with or without antacid; assay type: in vivo, human; conditions: omeprazole 40 mg, administered 1 hour pre-meal, 10 subjects
# Procedure: Pharmacodynamic parameters disclosed herein include: (1) mean gastric acid concentration; (2) onset time of gastric pH increase; (3) gastric pH over time; (4) length of time gastric pH is >4; (5) percentage (%) of time gastric pH is time pH>4 (in figures as “% time pH>4”); (6) median gastric pH; and (7) integrated gastric acidity, which is expressed as mM acid×time, (mmol acid×hr/L) is calculated as the cumulative time-weighted average of mean gastric acid concentration, as follows:
# as §1
# For periods requiring a meal, subjects fasted for at least 10 hours and were allowed water ad libitum until 2 hours prior to administration. Gastric pH monitoring was recorded for up to 11 hours beginning at time zero. The standard breakfast was ingested over 30 minutes beginning 90 minutes after the initiation of pH monitoring.
# For periods including dosing after a meal, subjects fasted for at least 10 hours. On Day 0, ninety minutes of probe pH monitoring was started prior to initiating ingestion of the standardized breakfast, which was eaten within 30 minutes. The pH monitoring continued for 9.5 hours after initiating ingestion of breakfast. […]
smiles,measurement,setting,value
COc1ccc2[nH]c([S+]([O-])Cc3ncc(C)c(OC)c3C)nc2c1 (stereo not shown) [Omeprazole Powder],AUC(0-inf),clinical,225 ng·h/mL
same,AUC(0-t),clinical,225 ng·h/mL
same,Cmax,clinical,186 ng/mL
same,Median Integrated Gastric Acidity 0-210 min. Post-meal,gastric acidity,35 mmol·h/L
